Assay results from patent publication US9676784B2, “Fused imidazolyl derivatives, their preparation and use as medicaments” (LABORATORIOS DEL DR. ESTEVE S.A., priority 2013, dated 2017).
Where a name gives a salt, the structure may show the parent alone.

Molecular target: σ1-receptor (Cavia porcellus, UniProt Q60492)
Assay: Binding assay for the σ1-receptor, [3H]-(+)-pentazocine, guinea pig brain membranes
Method: Guinea pig brains were homogenized in 10 vols. (w/v) of Tris-HCl 50 mM 0.32 M sucrose, pH 7.4, with a Kinematica Polytron PT 3000 at 15000 r.p.m. for 30 s. The homogenate was centrifuged at 1000 g for 10 min at 4° C. and the supernatants collected and centrifuged again at 48000 g for 15 min at 4° C. The pellet was resuspended in 10 volumes of Tris-HCl buffer (50 mM, pH 7.4), incubated at 37° C. for 30 min, and centrifuged at 48000 g for 20 min at 4° C. Following this, the pellet was re-suspended in fresh Tris-HCl buffer (50 mM, pH 7.4) and stored on ice until use.
The radioligand used was [^3H]-(+)-pentazocine at 5.0 nM and the final volume was 200 μl. The incubation was initiated with the addition of 100 μl of membrane at a final tissue concentration of approximately 5 mg tissue net weight/mL and the incubation time was 150 m. at 37° C. After incubation, the membranes were collected onto pretreated glass fiber filterplate (MultiScreen-FC, Millipore), with polyethylenimine 0.1%. […] Nonspecific binding was determined with 1 μM haloperidol.

Chain of σ1-receptor (Q60492 whole entry): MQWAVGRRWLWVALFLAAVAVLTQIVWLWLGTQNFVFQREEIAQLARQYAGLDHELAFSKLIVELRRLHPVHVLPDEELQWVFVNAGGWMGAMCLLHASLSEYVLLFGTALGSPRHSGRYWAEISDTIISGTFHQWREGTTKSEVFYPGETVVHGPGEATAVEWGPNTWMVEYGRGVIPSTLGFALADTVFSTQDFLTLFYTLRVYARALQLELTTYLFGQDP

| Compound | Ki |
| --- | --- |
| Fc1ccc(CN2CCn3c(cnc3Nc3ccc(F)cn3)C2)cc1 [Example 20, 7-(4-fluorobenzyl)-N-(5-fluoropyridin-2-yl)-5,6,7,8-tetrahydroimidazo[1,5-a]pyrazin-3-amine] | 67 nM |
| c1ccc(Cc2ncc3n2CCN(CC2CCCCC2)C3)cc1 [Example 28, 3-Benzyl-7-(cyclohexylmethyl)-5,6,7,8-tetrahydroimidazo[1,5-a]pyrazine trifluoroacetate] | 39 nM |
| COc1ccc(CN2CCn3c(cnc3Nc3ccc(F)cc3)C2)cn1 [Example 39, N-(4-fluorophenyl)-7-((6-methoxypyridin-3-yl)methyl)-5,6,7,8-tetrahydroimidazo[1,5-a]pyrazin-3-amine] | 373 nM |
| Fc1ccc(Nc2ncc3n2CCN(CC2CCC(F)(F)CC2)C3)cc1 [Example 36, 7-((4,4-difluorocyclohexyl)methyl)-N-(4-fluorophenyl)-5,6,7,8-tetrahydroimidazo[1,5-a]pyrazin-3-amine] | 21 nM |
| COc1cccc(Nc2ncc3n2CCN(CC2CCCCC2)C3)c1 [Example 7, 7-(cyclohexylmethyl)-N-(3-methoxyphenyl)-5,6,7,8-tetrahydroimidazo[1,5-a]pyrazin-3-amine] | 13 nM |
| CCC(=O)N(c1cccc(O)c1)c1ncc2n1CCN(CCc1ccccc1)C2 [Example 25, N-(3-hydroxyphenyl)-N-(7-phenethyl-5,6,7,8-tetrahydroimidazo[1,5-a]pyrazin-3-yl)propionamide] | 358 nM |
| Fc1c(Cl)cccc1Nc1ncc2n1CCCN(CC1CCOCC1)C2 [Example 17, N-(3-chloro-2-fluorophenyl)-8-((tetrahydro-2H-pyran-4-yl)methyl)-6,7,8,9-tetrahydro-5H-imidazo[1,5-a][1,4]diazepin-3-amine] | 14 nM |
| CCCNC(=O)Nc1ncc2n1CCN(CC1CCCCC1)C2 [Example 3, 1-(7-(Cyclohexylmethyl)-5,6,7,8-tetrahydroimidazo[1,5-a]pyrazin-3-yl)-3-propylurea] | 71 nM |
| c1ccc(CCN2CCn3c(cnc3Nc3ccccc3)C2)cc1 [Example 31, 7-Phenethyl-N-phenyl-5,6,7,8-tetrahydroimidazo[1,5-a]pyrazin-3-amine] | 101 nM |
| Fc1cc(F)cc(Nc2ncc3n2CCN(CC2CCCCC2)C3)c1 [Example 6, 7-(cyclohexylmethyl)-N-(3,5-difluorophenyl)-5,6,7,8-tetrahydroimidazo[1,5-a]pyrazin-3-amine] | 12 nM |
| c1ccc(Nc2ncc3n2CCN(CC2CCOCC2)C3)cc1 [Example 12, N-phenyl-7-((tetrahydro-2H-pyran-4-yl)methyl)-5,6,7,8-tetrahydroimidazo[1,5-a]pyrazin-3-amine] | 258 nM |
| COc1cccc(Nc2ncc3n2CCCN(CC2CCOCC2)C3)c1 [Example 15, N-(3-methoxyphenyl)-8-((tetrahydro-2H-pyran-4-yl)methyl)-6,7,8,9-tetrahydro-5H-imidazo[1,5-a][1,4]diazepin-3-amine] | 266 nM |
| Fc1ccc(Nc2ncc3n2CCN(C2CCCCC2)C3)cc1 [Example 40, 7-cyclohexyl-N-(4-fluorophenyl)-5,6,7,8-tetrahydroimidazo[1,5-a]pyrazin-3-amine] | 68 nM |
| Fc1cc(F)cc(Nc2ncc3n2CCCN(CC2CCOCC2)C3)c1 [Example 18, N-(3,5-difluorophenyl)-8-((tetrahydro-2H-pyran-4-yl)methyl)-6,7,8,9-tetrahydro-5H-imidazo[1,5-a][1,4]diazepin-3-amine] | 26 nM |
| Fc1ccc(Nc2ncc3n2CCN(CC2CCCCC2)C3)cc1 [Example 8, 7-(cyclohexylmethyl)-N-(4-fluorophenyl)-5,6,7,8-tetrahydroimidazo[1,5-a]pyrazin-3-amine] | 8 nM |
| c1ccc(Nc2ncc3n2CCN(CC2CCCCC2)C3)cc1 [Example 5, 7-(Cyclohexylmethyl)-N-phenyl-5,6,7,8-tetrahydroimidazo[1,5-a]pyrazin-3-amine] | 8.2 nM |
| Oc1cccc(Nc2ncc3n2CCN(CCc2ccccc2)C3)c1 [Example 34, 3-(7-phenethyl-5,6,7,8-tetrahydroimidazo[1,5-a]pyrazin-3-ylamino)phenol] | 168 nM |
| Fc1ccc(Cc2ncc3n2CCN(CC2CCCCC2)C3)cc1 [Example 30, 7-(cyclohexylmethyl)-3-(4-fluorobenzyl)-5,6,7,8-tetrahydroimidazo[1,5-a]pyrazine hydrochloride] | 22 nM |
| CCC(=O)N(c1cccc(O)c1)c1ncc2n1CCN(Cc1ccccc1)C2 [Example 24, N-(7-benzyl-5,6,7,8-tetrahydroimidazo[1,5-a]pyrazin-3-yl)-N-(3-hydroxyphenyl)propionamide] | 124 nM |
| Fc1ccc(Nc2ncc3n2CCN(Cc2ccc(F)nc2)C3)cc1 [Example 38, N-(4-fluorophenyl)-7-((6-fluoropyridin-3-yl)methyl)-5,6,7,8-tetrahydroimidazo[1,5-a]pyrazin-3-amine] | 311 nM |

Further lines, results first:

| Ki | Compound |
| --- | --- |
| 175 nM | Fc1ccc(Nc2ncc3n2CCCN(CC2CCOCC2)C3)cc1 [Example 16, N-(4-fluorophenyl)-8-((tetrahydro-2H-pyran-4-yl)methyl)-6,7,8,9-tetrahydro-5H-imidazo[1,5-a][1,4]diazepin-3-amine] |
| 106 nM | CCNC(=O)Nc1ncc2n1CCN(CC1CCCCC1)C2 [Example 2, 1-(7-(Cyclohexylmethyl)-5,6,7,8-tetrahydroimidazo[1,5-a]pyrazin-3-yl)-3-ethylurea] |
| 37 nM | Fc1ccc(Nc2ncc3n2CCN(Cc2ccc(F)cc2F)C3)cc1 [Example 35, 7-(2,4-difluorobenzyl)-N-(4-fluorophenyl)-5,6,7,8-tetrahydroimidazo[1,5-a]pyrazin-3-amine] |
| 293 nM | Fc1ccc(Nc2ncc3n2CCN(Cc2ccc(F)cn2)C3)cc1 [Example 37, N-(4-fluorophenyl)-7-((5-fluoropyridin-2-yl)methyl)-5,6,7,8-tetrahydroimidazo[1,5-a]pyrazin-3-amine] |
| 232 nM | Fc1c(Cl)cccc1Nc1ncc2n1CCN(Cc1ccccc1)C2 [Example 9, 7-benzyl-N-(3-chloro-2-fluorophenyl)-5,6,7,8-tetrahydroimidazo[1,5-a]pyrazin-3-amine] |
| 63 nM | Oc1cccc(Nc2ncc3n2CCN(Cc2ccccc2)C3)c1 [Example 19, 3-(7-benzyl-5,6,7,8-tetrahydroimidazo[1,5-a]pyrazin-3-ylamino)phenol] |
| 44 nM | Fc1ccc(Nc2ncc3n2CCN(Cc2ccccc2)C3)cc1 [Example 21, 7-benzyl-N-(4-fluorophenyl)-5,6,7,8-tetrahydroimidazo[1,5-a]pyrazin-3-amine] |
| 38 nM | c1ccc(CNc2ncc3n2CCN(CC2CCCCC2)C3)cc1 [Example 27, N-Benzyl-7-(cyclohexylmethyl)-5,6,7,8-tetrahydroimidazo[1,5-a]pyrazin-3-amine] |
| 179 nM | CCNC(=O)Nc1ncc2n1CCCN(CC1CCCCC1)C2 [Example 1, 1-(8-(Cyclohexylmethyl)-6,7,8,9-tetrahydro-5H-imidazo[1,5-a][1,4]diazepin-3-yl)-3-ethylurea] |
